Data published in US4307106A, “Aminothiazoles” (Pfizer Inc., priority 1979, dated 1981).
Where a name gives a salt, the structure may show the parent alone.

Experiments:
murine thymus cells = experiment: in vitro stimulation of lymphocyte proliferation of murine thymus cells cultured in the presence of Concanavalin A (lymphocyte stimulation assay, LSA); assay type: cell-based, mouse (male C57B1/6); conditions: Con A-stimulated thymus cells, 48 h at 37° C.; for LSA activity: highest 3H-thymidine cpm of eight concentrations 0.02 to 50 μg/ml, hydrohalide salts
Source text: The immune regulant activity of the compounds of the present invention may be determined by such pharmacological tests as the stimulation in vitro of lymphocyte proliferation of murine thymus cells cultured in the presence of Concanavalin A (Con A), employing the general evaluation procedure of V. J. Merluzzi et. al., see Journal of Clinical and Experimental Immunology, Volume 22, page 486 (1975).
The immune regulant activity of the aminothiazoles described in Examples 2, 3, 4, 6, 7, 8, 10 and 11 was evaluated by determining their ability to stimulate, in vitro the lymphocyte proliferation of murine thymus cells cultured in the presence of Concanavalin A (Con A) by employing the procedure of V. J. Merluzzi et. al., as essentially described in the Journal of Clinical and Experimental Immunology, Vol. 22, p. 486 (1975). The cells were derived from male C57B1/6 mice of from 6-8 weeks age, purchased from the Jackson Laboratories of Bar Harbor, Maine and the Con A was obtained from Sigma Chemicals of St. Louis, Mo. Each cell culture (consisting of 0.10 ml thymus cells stock solution, 0.05 ml of Con A stock solution and 0.05 ml of drug solution) was performed in quadruplicate and cellular proliferation was measured, after 48 hours of incubation at 37° C., by pulsing each culture with ^3 H-thymidine (0.01 ml of specific activity 1.9 C/mM, obtained from Schwarz-Mann, Inc. of Orangeburg, N.Y.) and then determining the incorporation of ^3 H-thymidine into cellular deoxyribonucleic acid (DNA) by an assessment of radioactivity using a liquid scintillation counter. […] These quadruplicate determinations are employed at eight different concentrations of drugs in the range 0.02 to 50 μg/ml. The highest cpm value obtained is employed in the scoring system.

[1] = system: carrageenin-induced rat foot edema; experiment: carrageenin-induced rat foot edema test; assay type: in vivo, rat (male albino); conditions: 33 mg/kg, p.o., 3 hours after carrageenin, vs non-drug treated control
Procedure: The activity of the compounds of the present invention as anti-inflammatoryagents may be determined by pharmacological tests, for example the standard carrageenin-induced rat foot edema test using the general procedure described by C. A. Winter et. al., see Proceedings of the Society of Experimental Biology in Medicine, Volume 111, page 544 (1962). In this test, anti-inflammatory activity is determined as the percent inhibition of edema formation in the hind paw of male albino rats (generally weighing about 150 to 190 grams) in response to a sub-plantar injection of carrageenin. The carrageenin is injected as a 1% aqueous suspension 1 hour after oral administration of the drug, which is normally given in the form of an aqueous solution or suspension. Edema formation is then assessed 3 hours after the carrageenin injection by comparing the initial volume of the injected paw and the volume after a 3 hour period. The increase in volume 3 hours after carrageenin injection constitutes the individual response. Compounds are considered active if the response between the drug-treated animals (6 rats per group) and the control group, i.e. the animals receiving the vehicle alone, is found to be significant on comparison with the results afforded by standard compounds like acetylsalicyclic acid at 100 mg/kg or phenylbutazone at 33 mg/kg, both by the oral route of administration.
The anti-inflammatory activity of aminothiazoles of this invention was determined using the standard carrageenin-induced rat foot edema test, according to the procedure essentially as described by C. A. Winter etl. al., and reported in the Proceedings of the Society for Experimental Biology and Medicine, Vol. 111, p. 544 (1962). The compounds were administered orally in the form of their previously reported hydrohalide salts at a dose level of 33 mg/kg. The results obtained in this manner are presented in the table below in terms of the percent inhibition of edema formation afforded by each test compound as compared to the non-drug treated control (i.e., aqueous solution with no compound): […]

Compound | LSA activity (murine thymus cells) | average counts per minute of 3H-thymidine incorporated (LSA activity) (murine thymus cells; levamisole standard, drug level with maximum activity) | % Inhibition of edema [1] [%]
c1ccc(-c2csc(NCc3cccs3)n2)cc1 [Example 6, 2-thenylamino-4-phenyl-thiazole hydrobromide] | +++ (those having an activity (27,000±1,000 cpm) greater than levamisole were scored as +++) |  | 
Br.Cc1sc(NCCc2ccccc2)nc1-c1ccccc1 [Example 3, 2-phenethylamino-4-phenyl-5-methylthiazole hydrobromide] | +++ (those having an activity (27,000±1,000 cpm) greater than levamisole were scored as +++) |  | 
c1ccc([C@H]2CN3CCSC3=N2)cc1 [levamisole, reference compound] |  | 22,000±900 cpm | 
COc1ccc(CCNc2nc(-c3ccc(F)cc3)cs2)cc1 [2-(p-methoxyphenethylamino)-4-(p-fluorophenyl)-thiazole] |  |  | 29
Br.c1ccc(CCNc2nc(-c3ccccc3)cs2)cc1 [Example 2, 2-phenethylamino-4-phenyl-thiazole hydrobromide] | +++ (those having an activity (27,000±1,000 cpm) greater than levamisole were scored as +++) |  | 47
Fc1ccc(-c2csc(NCc3cccs3)n2)cc1 [2-thenyl, 4-fluorophenyl, hydrogen, HBr, 2-thenylamino-4-(p-fluorophenyl)-thiazole] |  |  | 49
Fc1ccc(-c2csc(NCc3cccs3)n2)cc1 [Example 7, 2-thenylamino-4(p-fluorophenyl)-thiazole hydrochloride] | +++ (those having an activity (27,000±1,000 cpm) greater than levamisole were scored as +++) |  | 
Br.Cc1sc(NCc2ccco2)nc1-c1ccccc1 [Example 10, 2-furfurylamino-5-methyl-4-phenyl-thiazole hydrobromide] | +++ (those having an activity (27,000±1,000 cpm) greater than levamisole were scored as +++) |  | 
